The source made the active and inactive calls. The calls are words filed in the database; no cut-off is given here.

The subject of experiment [1] is CAL-27. The experiment in a line: Induction of apoptosis in human CAL27 cells assessed as accumulation at sub-G1 phase at 100 uM measured after 48 hrs by propidium iodide staining based flow cytometry relative to control. The experiment is classed as functional. For orientation: Flow cytometry measures light scatter and fluorescence of single cells or particles in a stream.

In experiment [2] the target is T1, Class 1 histone deacetylase (Homo sapiens, UniProt Q13547+O15379+Q92769+Q9BY41).
T1 sequence (O15379 whole entry, looked up): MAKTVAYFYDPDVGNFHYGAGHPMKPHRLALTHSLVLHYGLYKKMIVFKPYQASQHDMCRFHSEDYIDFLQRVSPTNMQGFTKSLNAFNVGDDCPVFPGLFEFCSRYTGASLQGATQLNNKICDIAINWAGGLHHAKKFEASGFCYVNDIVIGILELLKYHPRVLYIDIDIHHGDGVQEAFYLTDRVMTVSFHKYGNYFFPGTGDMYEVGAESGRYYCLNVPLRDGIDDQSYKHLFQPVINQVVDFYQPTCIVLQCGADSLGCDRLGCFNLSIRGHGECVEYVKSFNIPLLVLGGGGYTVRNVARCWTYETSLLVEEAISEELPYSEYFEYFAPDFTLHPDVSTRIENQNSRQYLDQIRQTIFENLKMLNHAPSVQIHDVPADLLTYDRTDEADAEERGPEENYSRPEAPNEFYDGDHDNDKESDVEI
T1 sequence (Q13547 whole entry, looked up): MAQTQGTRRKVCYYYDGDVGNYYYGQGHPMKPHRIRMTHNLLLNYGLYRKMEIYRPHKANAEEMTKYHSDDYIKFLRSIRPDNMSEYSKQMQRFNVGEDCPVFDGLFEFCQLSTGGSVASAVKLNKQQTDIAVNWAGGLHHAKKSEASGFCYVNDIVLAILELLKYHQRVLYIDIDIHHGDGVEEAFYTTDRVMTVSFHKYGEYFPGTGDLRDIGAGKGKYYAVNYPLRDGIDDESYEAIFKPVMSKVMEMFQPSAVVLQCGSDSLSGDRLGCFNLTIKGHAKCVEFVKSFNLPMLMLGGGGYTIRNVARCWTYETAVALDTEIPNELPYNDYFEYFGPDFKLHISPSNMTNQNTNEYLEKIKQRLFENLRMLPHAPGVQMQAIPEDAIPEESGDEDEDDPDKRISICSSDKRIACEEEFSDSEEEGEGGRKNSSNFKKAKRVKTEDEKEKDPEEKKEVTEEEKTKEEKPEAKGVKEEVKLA
T1 sequence (Q92769 whole entry, looked up): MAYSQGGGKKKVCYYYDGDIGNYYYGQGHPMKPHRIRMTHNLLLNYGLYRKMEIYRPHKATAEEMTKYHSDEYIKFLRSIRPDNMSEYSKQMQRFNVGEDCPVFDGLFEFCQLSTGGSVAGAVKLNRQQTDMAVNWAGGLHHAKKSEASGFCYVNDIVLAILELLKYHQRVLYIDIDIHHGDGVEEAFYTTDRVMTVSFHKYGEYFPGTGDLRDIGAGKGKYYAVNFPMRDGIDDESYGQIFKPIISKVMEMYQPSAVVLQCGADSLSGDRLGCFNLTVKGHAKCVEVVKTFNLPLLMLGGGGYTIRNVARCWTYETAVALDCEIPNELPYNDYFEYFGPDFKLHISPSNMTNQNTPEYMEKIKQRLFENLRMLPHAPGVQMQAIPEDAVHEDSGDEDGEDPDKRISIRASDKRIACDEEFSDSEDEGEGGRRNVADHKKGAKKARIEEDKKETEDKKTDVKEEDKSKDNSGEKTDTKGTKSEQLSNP
T1 sequence (Q9BY41 whole entry, looked up): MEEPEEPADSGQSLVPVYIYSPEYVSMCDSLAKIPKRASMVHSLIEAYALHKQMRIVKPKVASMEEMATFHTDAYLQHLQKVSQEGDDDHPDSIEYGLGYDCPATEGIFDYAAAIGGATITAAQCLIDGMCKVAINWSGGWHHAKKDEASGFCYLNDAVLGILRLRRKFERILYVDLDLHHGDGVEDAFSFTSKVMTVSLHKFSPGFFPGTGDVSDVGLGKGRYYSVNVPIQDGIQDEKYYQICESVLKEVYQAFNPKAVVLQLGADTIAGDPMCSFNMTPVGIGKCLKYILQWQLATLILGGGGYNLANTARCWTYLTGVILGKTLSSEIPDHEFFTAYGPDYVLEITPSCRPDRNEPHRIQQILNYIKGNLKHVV
Description: Inhibition of class 1 HDAC in human Cal27CisR cells assessed as potentiation of cisplatin-induced cytotoxicity by measuring combination index at 0.10 uM in presence of 1 uM cisplatin by MTT assay based Chou-Talalay analysis
The target of experiment [3] is T1, Class 1 histone deacetylase. This is another data set of the same source.
Description: Inhibition of class 1 HDAC in human Cal27CisR cells assessed as potentiation of cisplatin-induced cytotoxicity by measuring combination index at 0.25 uM in presence of 3.2 uM cisplatin by MTT assay based Chou-Talalay analysis
Experiment [4] has the same target. The experiment is described as follows: Inhibition of class 1 HDAC in human CAL27 cells assessed as potentiation of cisplatin-induced cytotoxicity by measuring combination index at 5 uM in presence of […] cisplatin by MTT assay based Chou-Talalay analysis. The experiment is classed as cell-based. Particulars: CAL-27.
The subject of experiment [5] is A2780. The experiment is described as follows: Cytotoxicity against human A2780 cells assessed as reduction in cell survival up to 100 uM measured after 72 hrs by MTT assay. The experiment is classed as functional, cell-based.
A short description of experiment [6]: Induction of apoptosis in human Cal27CisR cells assessed as accumulation at sub-G1 phase at […] after 48 hrs by propidium iodide staining based flow cytometry relative to control. The experiment is classed as functional.
Experiment [7] concerns CAL-27. The experiment is described as follows: Induction of apoptosis in human CAL27 cells assessed as caspase-3/7 activation at […] measured after 48 hrs by CellEvent caspase 3/7 green detection reagent/Hoechst 33342 staining based imaging analysis relative to control. The experiment is classed as functional.
Experiment [8] addresses T1, Class 1 histone deacetylase. The experiment is described as follows: Inhibition of class 1 HDAC in human Cal27CisR cells assessed as potentiation of cisplatin-induced apoptosis assessed as increase in caspase-3/7 activation at […] preincubated for 48 hrs followed by cisplatin addition and measured after 24 hrs in presence of pan caspase inhibitor QVD by CellEvent caspase 3/7 green detection reagent/Hoechst 33342 staining based imaging analysis. The experiment is classed as cell-based.

With `CN(C)c1ccc(C(=O)N(CC(=O)NCc2ccccc2)Cc2ccc(C(=O)Nc3ccccc3N)cc2)cc1`, the Activity in experiment [1] worked out at 31%. For the same compound, the CI in experiment [2] is under 0.2; in experiment [3], 0.44.
`Cc1cc(C)cc(C(=O)N(CCCCCC(=O)Nc2cc(-c3ccccc3)ccc2N)CC(=O)NCc2ccccc2)c1`: the CI in experiment [4] amounted to 0.1.
Take `Cc1cc(C)cc(C(=O)N(CC(=O)NCc2ccccc2)Cc2ccc(C(=O)Nc3cc(-c4ccccc4)ccc3N)cc2)c1`: in experiment [5], the result was inactive. For the same compound, the Activity came to 7.45% in experiment [6] and 9.47% in experiment [7]. Also, the inhibition result in experiment [8] is “inactive”.

The record behind these values is ChEMBL document CHEMBL4334526, “Synthesis of Peptoid-Based Class I-Selective Histone Deacetylase Inhibitors with Chemosensitizing Properties” (J Med Chem, 2019).
